In PubChem BioAssay (NCI):
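Protocol summary: plate cells (96-well), add compound at 5 concentrations, incubate 48 h, interpolate endpoints linearly. TGI: concentration producing complete growth inhibition.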

Assays:
Experiment in all cases: inhibition of tumour cell growth, NCI panel, 48 h
786-0 renal = test system: 786-0 renal
A498 renal = test system: A498 renal
A549 NSCLC = test system: A549 NSCLC
ACHN renal = test system: ACHN renal
CAKI-1 renal = test system: CAKI-1 renal
CCRF-CEM leukemia = test system: CCRF-CEM leukemia
COLO 205 colon = test system: COLO 205 colon
DLD-1 colon = test system: DLD-1 colon
DMS 114 small cell lung = test system: DMS 114 small cell lung
DMS 273 small cell lung = test system: DMS 273 small cell lung
HCC-2998 colon = test system: HCC-2998 colon
HCT-116 colon = test system: HCT-116 colon
HCT-15 colon = test system: HCT-15 colon
HL-60(TB) leukemia = test system: HL-60(TB) leukemia
HOP-18 NSCLC = test system: HOP-18 NSCLC
HOP-62 NSCLC = test system: HOP-62 NSCLC
HT29 colon = test system: HT29 colon
IGROV1 ovarian = test system: IGROV1 ovarian
K-562 leukemia = test system: K-562 leukemia
KM12 colon = test system: KM12 colon
KM20L2 colon = test system: KM20L2 colon
LOX IMVI melanoma = test system: LOX IMVI melanoma
LXFL 529 NSCLC = test system: LXFL 529 NSCLC
M14 melanoma = test system: M14 melanoma
M19-MEL melanoma = test system: M19-MEL melanoma
MALME-3M melanoma = test system: MALME-3M melanoma
MOLT-4 leukemia = test system: MOLT-4 leukemia
NCI-H226 lung = test system: NCI-H226 lung
NCI-H23 lung = test system: NCI-H23 lung
NCI-H460 lung = test system: NCI-H460 lung
NCI-H522 lung = test system: NCI-H522 lung
OVCAR-3 ovarian = test system: OVCAR-3 ovarian
OVCAR-4 ovarian = test system: OVCAR-4 ovarian
OVCAR-5 ovarian = test system: OVCAR-5 ovarian
OVCAR-8 ovarian = test system: OVCAR-8 ovarian
RPMI-8226 leukemia = test system: RPMI-8226 leukemia
RXF 393 renal = test system: RXF 393 renal
SF-268 CNS = test system: SF-268 CNS
SF-295 CNS = test system: SF-295 CNS
SF-539 CNS = test system: SF-539 CNS
SK-MEL-2 melanoma = test system: SK-MEL-2 melanoma
SK-MEL-28 melanoma = test system: SK-MEL-28 melanoma
SK-MEL-5 melanoma = test system: SK-MEL-5 melanoma
SK-OV-3 ovarian = test system: SK-OV-3 ovarian
SN12C renal = test system: SN12C renal
SNB-19 CNS = test system: SNB-19 CNS
SNB-75 CNS = test system: SNB-75 CNS
SNB-78 CNS = test system: SNB-78 CNS
SW-620 colon = test system: SW-620 colon
TK-10 renal = test system: TK-10 renal
U251 CNS = test system: U251 CNS
UACC-257 melanoma = test system: UACC-257 melanoma
UACC-62 melanoma = test system: UACC-62 melanoma
UO-31 renal = test system: UO-31 renal
EKVX NSCLC = test system: EKVX NSCLC
HOP-92 NSCLC = test system: HOP-92 NSCLC
SR leukemia = test system: SR leukemia

Work on `O=C(CSc1nnc(Cc2ccccc2)o1)Nc1ccc(Cl)cc1Cl` yielded a TGI (786-0 renal) of over 100 µM, a TGI (A498 renal) of over 100 µM and a TGI (A549 NSCLC) of over 100 µM. For the same compound, the TGI (ACHN renal) was over 100 µM, the TGI (CAKI-1 renal) was over 100 µM and the TGI (CCRF-CEM leukemia) was over 100 µM. The TGI (COLO 205 colon) was over 100 µM, the TGI (DLD-1 colon) was over 100 µM and the TGI (DMS 114 small cell lung) was over 100 µM. The TGI (DMS 273 small cell lung) was over 100 µM, the TGI (HCC-2998 colon) was over 100 µM and the TGI (HCT-116 colon) was over 100 µM. The TGI (HCT-15 colon) was over 100 µM, the TGI (HL-60(TB) leukemia) was over 100 µM and the TGI (HOP-18 NSCLC) was over 100 µM. It also gave a TGI (HOP-62 NSCLC) of over 100 µM, a TGI (HT29 colon) of over 100 µM and a TGI (IGROV1 ovarian) of over 100 µM. For the same compound, the TGI (K-562 leukemia) was over 100 µM, the TGI (KM12 colon) was over 100 µM and the TGI (KM20L2 colon) was over 100 µM. For the same compound, the TGI (LOX IMVI melanoma) was over 100 µM, the TGI (LXFL 529 NSCLC) was over 100 µM and the TGI (M14 melanoma) was over 100 µM. For the same compound, the TGI (M19-MEL melanoma) was over 100 µM, the TGI (MALME-3M melanoma) was over 100 µM and the TGI (MOLT-4 leukemia) was over 100 µM. It also gave a TGI (NCI-H226 lung) of over 100 µM, a TGI (NCI-H23 lung) of over 100 µM and a TGI (NCI-H460 lung) of over 100 µM. The TGI (NCI-H522 lung) was over 100 µM, the TGI (OVCAR-3 ovarian) was over 100 µM and the TGI (OVCAR-4 ovarian) was over 100 µM. The TGI (OVCAR-5 ovarian) was over 100 µM, the TGI (OVCAR-8 ovarian) was over 100 µM and the TGI (RPMI-8226 leukemia) was over 100 µM. For the same compound, the TGI (RXF 393 renal) was over 100 µM, the TGI (SF-268 CNS) was over 100 µM and the TGI (SF-295 CNS) was over 100 µM. It also gave a TGI (SF-539 CNS) of over 100 µM, a TGI (SK-MEL-2 melanoma) of over 100 µM and a TGI (SK-MEL-28 melanoma) of over 100 µM. For the same compound, the TGI (SK-MEL-5 melanoma) was over 100 µM, the TGI (SK-OV-3 ovarian) was over 100 µM and the TGI (SN12C renal) was over 100 µM. For the same compound, the TGI (SNB-19 CNS) was over 100 µM, the TGI (SNB-75 CNS) was over 100 µM and the TGI (SNB-78 CNS) was over 100 µM. For the same compound, the TGI (SW-620 colon) was over 100 µM, the TGI (TK-10 renal) was over 100 µM and the TGI (U251 CNS) was over 100 µM. For the same compound, the TGI (UACC-257 melanoma) was over 100 µM, the TGI (UACC-62 melanoma) was over 100 µM and the TGI (UO-31 renal) was over 100 µM.

In the case of `COc1cccc2c1C(=O)C1(O)CCCCC21` (stereo not drawn), the TGI (786-0 renal) is reported as over 100 µM, the TGI (A498 renal) is reported as over 100 µM and the TGI (A549 NSCLC) is reported as over 100 µM. For the same compound, the TGI (ACHN renal) was over 100 µM, the TGI (CAKI-1 renal) was over 100 µM and the TGI (CCRF-CEM leukemia) was over 100 µM. The TGI (COLO 205 colon) was over 100 µM, the TGI (DLD-1 colon) was over 100 µM and the TGI (DMS 114 small cell lung) was over 100 µM. For the same compound, the TGI (DMS 273 small cell lung) was over 100 µM, the TGI (HCC-2998 colon) was over 100 µM and the TGI (HCT-116 colon) was over 100 µM. For the same compound, the TGI (HCT-15 colon) was over 100 µM, the TGI (HL-60(TB) leukemia) was over 100 µM and the TGI (HOP-18 NSCLC) was over 100 µM. It also gave a TGI (HOP-62 NSCLC) of over 100 µM, a TGI (HT29 colon) of over 100 µM and a TGI (IGROV1 ovarian) of over 100 µM. For the same compound, the TGI (K-562 leukemia) was over 100 µM, the TGI (KM12 colon) was over 100 µM and the TGI (KM20L2 colon) was over 100 µM. The TGI (LOX IMVI melanoma) was over 100 µM, the TGI (LXFL 529 NSCLC) was over 100 µM and the TGI (M14 melanoma) was over 100 µM. The TGI (M19-MEL melanoma) was over 100 µM, the TGI (MALME-3M melanoma) was over 100 µM and the TGI (MOLT-4 leukemia) was over 100 µM. For the same compound, the TGI (NCI-H226 lung) was over 100 µM, the TGI (NCI-H23 lung) was over 100 µM and the TGI (NCI-H460 lung) was over 100 µM. For the same compound, the TGI (NCI-H522 lung) was over 100 µM, the TGI (OVCAR-3 ovarian) was over 100 µM and the TGI (OVCAR-4 ovarian) was over 100 µM. It also gave a TGI (OVCAR-5 ovarian) of over 100 µM, a TGI (OVCAR-8 ovarian) of over 100 µM and a TGI (RPMI-8226 leukemia) of over 100 µM. It also gave a TGI (RXF 393 renal) of over 100 µM, a TGI (SF-268 CNS) of over 100 µM and a TGI (SF-295 CNS) of over 100 µM. For the same compound, the TGI (SF-539 CNS) was over 100 µM, the TGI (SK-MEL-2 melanoma) was over 100 µM and the TGI (SK-MEL-28 melanoma) was over 100 µM. The TGI (SK-MEL-5 melanoma) was over 100 µM, the TGI (SK-OV-3 ovarian) was over 100 µM and the TGI (SN12C renal) was over 100 µM. For the same compound, the TGI (SNB-19 CNS) was over 100 µM, the TGI (SNB-75 CNS) was over 100 µM and the TGI (SNB-78 CNS) was over 100 µM. It also gave a TGI (SW-620 colon) of over 100 µM, a TGI (TK-10 renal) of over 100 µM and a TGI (U251 CNS) of over 100 µM. It also gave a TGI (UACC-257 melanoma) of over 100 µM, a TGI (UACC-62 melanoma) of over 100 µM and a TGI (UO-31 renal) of over 100 µM.

Work on `O=C1C=C(Nc2ccccc2C(=O)c2ccccc2)c2ccccc2C1=O` yielded a TGI (786-0 renal) of over 100 µM, a TGI (A498 renal) of over 100 µM and a TGI (A549 NSCLC) of over 100 µM. The TGI (ACHN renal) was over 100 µM, the TGI (CAKI-1 renal) was over 100 µM and the TGI (COLO 205 colon) was over 100 µM. The TGI (DLD-1 colon) was over 100 µM, the TGI (DMS 114 small cell lung) was over 100 µM and the TGI (DMS 273 small cell lung) was over 100 µM. It also gave a TGI (EKVX NSCLC) of over 100 µM, a TGI (HCC-2998 colon) of over 100 µM and a TGI (HCT-116 colon) of over 100 µM. The TGI (HCT-15 colon) was over 100 µM, the TGI (HOP-18 NSCLC) was over 100 µM and the TGI (HOP-62 NSCLC) was over 100 µM. It also gave a TGI (HOP-92 NSCLC) of over 100 µM, a TGI (HT29 colon) of over 100 µM and a TGI (IGROV1 ovarian) of over 100 µM. For the same compound, the TGI (KM12 colon) was over 100 µM, the TGI (KM20L2 colon) was over 100 µM and the TGI (LXFL 529 NSCLC) was over 100 µM. For the same compound, the TGI (M14 melanoma) was over 100 µM, the TGI (M19-MEL melanoma) was 33.2 µM and the TGI (MALME-3M melanoma) was over 100 µM. The TGI (NCI-H226 lung) was over 100 µM, the TGI (NCI-H23 lung) was over 100 µM and the TGI (NCI-H460 lung) was over 100 µM. The TGI (NCI-H522 lung) was 55.9 µM, the TGI (OVCAR-3 ovarian) was over 100 µM and the TGI (OVCAR-4 ovarian) was over 100 µM. The TGI (OVCAR-5 ovarian) was over 100 µM, the TGI (OVCAR-8 ovarian) was over 100 µM and the TGI (RPMI-8226 leukemia) was over 100 µM. For the same compound, the TGI (RXF 393 renal) was over 100 µM, the TGI (SF-268 CNS) was over 100 µM and the TGI (SF-295 CNS) was over 100 µM. It also gave a TGI (SF-539 CNS) of over 100 µM, a TGI (SK-MEL-2 melanoma) of over 100 µM and a TGI (SK-MEL-28 melanoma) of over 100 µM. The TGI (SK-OV-3 ovarian) was over 100 µM, the TGI (SN12C renal) was over 100 µM and the TGI (SNB-19 CNS) was over 100 µM. The TGI (SNB-75 CNS) was over 100 µM, the TGI (SNB-78 CNS) was over 100 µM and the TGI (SR leukemia) was over 100 µM. For the same compound, the TGI (SW-620 colon) was over 100 µM, the TGI (U251 CNS) was over 100 µM and the TGI (UACC-257 melanoma) was 27.9 µM. It also gave a TGI (UACC-62 melanoma) of over 100 µM and a TGI (UO-31 renal) of over 100 µM.
